Measurements as given in ChEMBL document CHEMBL1141101, “Design, synthesis, and biological activity of m-tyrosine-based 16- and 17-membered macrocyclic inhibitors of hepatitis C virus NS3 serine protease” (J Med Chem, 2005).
Numbered stars: 1 amine (or outer) side, 2 acyl side, 3 side chain; on linkers, the order of the positions; unused ones are H or OH. Square brackets hold non-standard residues; d marks the D form. Peptide text beside a SMILES is read from it. * marks the point of attachment. Phe(3-CF3) = N[C@@H](Cc1cccc(C(F)(F)F)c1)C(=O)O; X1 = CCCC(N[*:1])C(=O)C(=O)[*:2]; Chg = N[C@H](C(=O)O)C1CCCCC1; Phg = N[C@H](C(=O)O)c1ccccc1; Boc = CC(C)(C)OC(=O)*

Molecular target: NS3 (Hepatitis C virus, UniProt A3EZJ3)
Sequence (A3EZJ3 whole entry): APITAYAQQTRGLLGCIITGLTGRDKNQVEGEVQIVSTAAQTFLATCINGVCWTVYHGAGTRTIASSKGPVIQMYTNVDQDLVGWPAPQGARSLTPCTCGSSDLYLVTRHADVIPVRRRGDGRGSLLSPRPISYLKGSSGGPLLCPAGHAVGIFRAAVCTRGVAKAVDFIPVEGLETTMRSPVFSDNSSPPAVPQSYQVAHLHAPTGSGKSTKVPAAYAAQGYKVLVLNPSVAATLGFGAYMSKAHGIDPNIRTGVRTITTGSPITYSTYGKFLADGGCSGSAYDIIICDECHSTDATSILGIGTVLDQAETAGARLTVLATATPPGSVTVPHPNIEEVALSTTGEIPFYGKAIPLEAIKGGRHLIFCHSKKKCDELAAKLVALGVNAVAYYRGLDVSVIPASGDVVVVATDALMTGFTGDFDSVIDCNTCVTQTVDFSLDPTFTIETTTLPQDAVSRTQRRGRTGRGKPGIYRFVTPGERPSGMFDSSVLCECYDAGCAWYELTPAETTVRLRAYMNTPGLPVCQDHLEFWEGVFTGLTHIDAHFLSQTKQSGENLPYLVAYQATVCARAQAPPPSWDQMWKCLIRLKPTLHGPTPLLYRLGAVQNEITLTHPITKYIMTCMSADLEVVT
Experiment: Binding affinity for HCV NS3 protease measured by HCV continuous assay
Parameters: species or system Hepacivirus hominis

## CCCC(NC(=O)[C@@H]1Cc2cccc(c2)OCCCCCCC(=O)N[C@@H](C2CCCCC2)C(=O)N1)C(=O)C(=O)NCC(=O)N[C@H](C(=O)O)c1ccccc1 (some centres not stated)
  Ki: 160 nM

## CCCC(NC(=O)[C@@H]1Cc2cccc(c2)OCCCCCCC(=O)N[C@@H](C2CCCCC2)C(=O)N1)C(=O)C(=O)NCC(=O)N[C@H](C(=O)OC(C)(C)C)c1ccccc1 (some centres not stated)
  Ki: 5500 nM

## CCCC(NC(=O)[C@@H]1Cc2cccc(c2)OCCCCCCC(=O)N[C@@H](C2CCCCC2)C(=O)N1)C(=O)C(=O)NCC(=O)N[C@H](C(=O)N(C)C)c1ccccc1 (some centres not stated)
  Ki: 310 nM

## CCCC(NC(=O)[C@@H]1Cc2cccc(c2)OCCCCCC(=O)N[C@@H](C2CCCCC2)C(=O)N1)C(=O)C(=O)NCC(=O)N[C@H](C(=O)OC(C)(C)C)c1ccccc1 (some centres not stated)
  Ki: > 8900 nM

## CCCC(NC(=O)[C@H](Cc1cccc(C(F)(F)F)c1)NC(=O)[C@@H](NC(=O)OC(C)(C)C)C1CCCCC1)C(=O)C(=O)NCC(=O)N[C@H](C(N)=O)c1ccccc1 (some centres not stated) (Boc-[Chg][Phe(3-CF3)][X1]G[Phg]-NH2)
  Ki: 8000 nM

## CCCC(NC(=O)[C@@H]1Cc2cccc(c2)OCCCCCC(=O)N[C@@H](C2CCCCC2)C(=O)N1)C(=O)C(=O)NCC(=O)N[C@H](C(=O)O)c1ccccc1 (some centres not stated)
  Ki: 1200 nM

## CCCC(NC(=O)[C@@H]1Cc2cccc(c2)OCCCCCCC(=O)N[C@@H](C2CCCCC2)C(=O)N1)C(=O)C(=O)NCC(=O)N[C@H](C(=O)NC)c1ccccc1 (some centres not stated)
  Ki: 170 nM
